From patent US20080051429A1, “USE OF 4-AMINO-PIPERIDINES FOR TREATING SLEEP DISORDERS” (priority 2006, published 2008)

How the values were obtained:
Test in all cases: R-SAT broad profiling
Assay type in all cases: cell-based
5HT1A = biological target: T1, 5HT1A (Homo sapiens, UniProt P08908); parameters: expressed in transfected cells; settings: read-out: pEC50/pIC50 (converted)
T1 sequence (P08908 1-422): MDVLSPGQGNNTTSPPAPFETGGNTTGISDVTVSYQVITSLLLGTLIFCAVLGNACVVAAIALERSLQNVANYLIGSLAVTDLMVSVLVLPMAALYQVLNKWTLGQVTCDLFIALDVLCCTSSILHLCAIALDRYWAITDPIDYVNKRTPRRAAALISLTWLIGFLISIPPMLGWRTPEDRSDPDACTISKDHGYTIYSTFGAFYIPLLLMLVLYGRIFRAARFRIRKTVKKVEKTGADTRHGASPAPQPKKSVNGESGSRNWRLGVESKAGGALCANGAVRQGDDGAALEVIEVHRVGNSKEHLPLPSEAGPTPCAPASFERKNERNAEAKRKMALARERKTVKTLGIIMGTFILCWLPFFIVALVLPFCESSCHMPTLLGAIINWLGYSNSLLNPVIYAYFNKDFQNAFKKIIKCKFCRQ
Procedure: (§1) The functional receptor assay, Receptor Selection and Amplification Technology (R-SAT), was used (with minor modifications from that previously described U.S. Pat. No. 5,707,798) to screen compounds for efficacy at the 5-HT2A receptor. Briefly, NIH3T3 cells were grown in 96 well tissue culture plates to 70-80% confluence. Cells were transfected for 12-16 hours with plasmid DNAs using superfect (Qiagen Inc.) as per manufacture's protocols. R-SAT's were generally performed with 50 ng/well of receptor and 20 ng/well of Beta-galactosidase plasmid DNA. All receptor and G-protein constructs used were in the pSI mammalian expression vector (Promega Inc) as described in U.S. Pat. No. 5,707,798. The 5HT2A receptor gene was amplified by nested PCR from brain cDNA using the oligodeoxynucleotides based on the published sequence (see Saltzman et. al. Biochem. Biophys. Res. Comm. 181:1469-78 (1991)). Large-scale transfections, cells were transfected for 12-16 hours, then trypsinized and frozen in DMSO. Frozen cells were later thawed, plated at 10,000-40,000 cells per well of a 96 well plate that contained drug. With both methods, cells were then grown in a humidified atmosphere with 5% ambient CO2 for five days. Media was then removed from the plates and marker gene activity was measured by the addition of the beta-galactosidase substrate ONPG (in PBS with 5% NP-40). The resulting colorimetric reaction was measured in a spectrophotometric plate reader (Titertek Inc.)at […]. All data were analyzed using the computer program XLFit (IDBSm). Efficacy is the percent maximal repression compared to repression by a control compound (ritanserin in the case of 5HT2A). pIC50 is the negative of the log(IC50), where IC50 is the calculated concentration in Molar that produces 50% maximal repression.
(§2) The R-SAT assay (described above in example 136) was used to investigate the selectivity of 2-(4-Methoxyphenyl)-N-(4-methylbenzyl)-N-(1-methylpiperidin-4-yl)acetamide hydrochloride.

5HT1E = 5HT1E (Homo sapiens, UniProt P28566); parameters: expressed in transfected cells; settings: read-out: pEC50/pIC50 (converted)
Procedure: as §1, §2

beta 2 = biological target: T2, beta 2 (Homo sapiens, UniProt P07550); settings: read-out: pEC50/pIC50 (converted)
T2 construct: expressed in transfected cells; host or cells: NIH3T3
Procedure: as §1, §2

Histamine 3 = biological target: T3, Histamine 3 (Homo sapiens, UniProt Q9Y5N1); settings: read-out: pEC50/pIC50 (converted)
T3 construct: expressed in transfected cells; host or cells: NIH3T3
Procedure: as §1, §2

CCK-A = biological target: T4, CCK-A (Homo sapiens, UniProt P32238); settings: agonist; read-out: pEC50/pIC50 (converted)
T4 construct: expressed in transfected cells; host or cells: NIH3T3
Procedure: as §1, §2

alpha-1A(a/c) = biological target: T5, alpha-1A(a/c) (Homo sapiens, UniProt P35348); settings: read-out: pEC50/pIC50 (converted)
T5 construct: expressed in transfected cells; host or cells: NIH3T3
Procedure: as §1, §2

alpha 2A = biological target: T6, alpha 2A (Homo sapiens, UniProt P08913); settings: read-out: pEC50/pIC50 (converted)
T6 construct: expressed in transfected cells; host or cells: NIH3T3
T6 sequence (P08913 1-465): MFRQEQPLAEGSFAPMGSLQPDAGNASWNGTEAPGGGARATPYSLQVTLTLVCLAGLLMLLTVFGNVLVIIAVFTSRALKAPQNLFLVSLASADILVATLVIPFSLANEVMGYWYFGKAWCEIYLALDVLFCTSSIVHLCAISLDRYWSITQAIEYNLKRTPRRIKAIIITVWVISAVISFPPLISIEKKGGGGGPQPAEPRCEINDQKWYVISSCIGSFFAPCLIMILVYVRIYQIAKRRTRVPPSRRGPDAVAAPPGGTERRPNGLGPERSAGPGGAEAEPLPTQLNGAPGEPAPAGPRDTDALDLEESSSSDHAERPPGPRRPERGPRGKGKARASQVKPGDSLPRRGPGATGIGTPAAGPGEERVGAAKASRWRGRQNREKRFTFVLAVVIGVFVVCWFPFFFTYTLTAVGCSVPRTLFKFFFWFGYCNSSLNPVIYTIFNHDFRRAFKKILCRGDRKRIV
Procedure: as §1, §2

5-HT4 = biological target: T7, 5-HT4 (Homo sapiens, UniProt Q13639); settings: read-out: pEC50/pIC50 (converted)
T7 construct: expressed in transfected cells
Procedure: as §1, §2

Vasopressin1A = biological target: T8, Vasopressin1A (Homo sapiens, UniProt P37288); settings: agonist; read-out: pEC50/pIC50 (converted)
T8 construct: expressed in transfected cells; host or cells: NIH3T3
Procedure: as §1, §2

m2 = biological target: T9, m2 (Homo sapiens, UniProt P08172); settings: read-out: pEC50/pIC50 (converted)
T9 construct: expressed in transfected cells; host or cells: NIH3T3
T9 sequence (P08172 1-466): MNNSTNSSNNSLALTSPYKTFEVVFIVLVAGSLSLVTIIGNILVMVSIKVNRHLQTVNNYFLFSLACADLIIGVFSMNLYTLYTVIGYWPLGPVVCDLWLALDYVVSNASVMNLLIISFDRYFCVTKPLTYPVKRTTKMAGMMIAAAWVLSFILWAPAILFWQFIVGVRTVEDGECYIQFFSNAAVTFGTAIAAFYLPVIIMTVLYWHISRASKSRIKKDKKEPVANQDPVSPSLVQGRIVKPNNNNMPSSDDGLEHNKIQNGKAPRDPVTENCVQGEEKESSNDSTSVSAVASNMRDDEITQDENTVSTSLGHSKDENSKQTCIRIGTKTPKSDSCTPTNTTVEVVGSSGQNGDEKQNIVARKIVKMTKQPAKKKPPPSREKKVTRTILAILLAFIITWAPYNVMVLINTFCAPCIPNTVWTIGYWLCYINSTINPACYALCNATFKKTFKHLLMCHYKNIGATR
Procedure: as §1, §2

beta 1 = biological target: T10, beta 1 (Homo sapiens, UniProt P08588); settings: read-out: pEC50/pIC50 (converted)
T10 construct: expressed in transfected cells; host or cells: NIH3T3
Procedure: as §1, §2

T5 sequence (P35348 whole entry): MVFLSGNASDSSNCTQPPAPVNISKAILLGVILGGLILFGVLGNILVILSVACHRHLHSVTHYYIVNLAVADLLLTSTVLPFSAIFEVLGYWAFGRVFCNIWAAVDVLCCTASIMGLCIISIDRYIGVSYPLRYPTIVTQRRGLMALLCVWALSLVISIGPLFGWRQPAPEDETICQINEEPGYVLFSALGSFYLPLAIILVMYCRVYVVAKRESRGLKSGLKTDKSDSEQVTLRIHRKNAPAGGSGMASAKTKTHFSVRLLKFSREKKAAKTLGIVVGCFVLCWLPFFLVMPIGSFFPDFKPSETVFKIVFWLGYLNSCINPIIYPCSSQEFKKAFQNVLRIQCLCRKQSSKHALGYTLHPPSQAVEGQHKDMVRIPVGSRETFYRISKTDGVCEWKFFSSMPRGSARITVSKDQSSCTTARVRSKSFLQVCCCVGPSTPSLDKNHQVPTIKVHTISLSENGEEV
T7 sequence (Q13639 1-387 isoform Q13639-2, species assumed): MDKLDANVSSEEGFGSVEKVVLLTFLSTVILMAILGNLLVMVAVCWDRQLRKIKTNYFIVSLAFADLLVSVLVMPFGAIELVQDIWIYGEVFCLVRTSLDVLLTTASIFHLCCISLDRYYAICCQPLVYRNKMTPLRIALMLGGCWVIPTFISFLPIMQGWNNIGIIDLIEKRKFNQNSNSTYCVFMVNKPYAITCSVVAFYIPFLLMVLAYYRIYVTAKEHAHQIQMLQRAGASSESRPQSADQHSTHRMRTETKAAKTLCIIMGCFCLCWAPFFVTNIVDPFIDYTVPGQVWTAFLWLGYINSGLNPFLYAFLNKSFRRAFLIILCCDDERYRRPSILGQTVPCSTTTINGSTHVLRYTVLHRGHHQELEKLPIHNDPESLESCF
T2 sequence (P07550 whole entry): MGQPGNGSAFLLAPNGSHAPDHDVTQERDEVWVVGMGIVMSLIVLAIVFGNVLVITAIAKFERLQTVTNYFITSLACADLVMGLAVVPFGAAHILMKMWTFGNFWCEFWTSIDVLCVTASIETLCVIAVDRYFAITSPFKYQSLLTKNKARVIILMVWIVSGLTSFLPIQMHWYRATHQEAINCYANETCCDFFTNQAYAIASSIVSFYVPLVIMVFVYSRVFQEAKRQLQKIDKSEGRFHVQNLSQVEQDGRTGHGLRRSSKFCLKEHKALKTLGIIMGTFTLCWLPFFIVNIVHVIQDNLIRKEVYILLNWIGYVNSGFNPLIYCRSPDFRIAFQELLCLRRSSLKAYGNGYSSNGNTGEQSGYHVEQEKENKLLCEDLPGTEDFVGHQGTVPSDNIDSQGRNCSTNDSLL
T3 sequence (Q9Y5N1 whole entry): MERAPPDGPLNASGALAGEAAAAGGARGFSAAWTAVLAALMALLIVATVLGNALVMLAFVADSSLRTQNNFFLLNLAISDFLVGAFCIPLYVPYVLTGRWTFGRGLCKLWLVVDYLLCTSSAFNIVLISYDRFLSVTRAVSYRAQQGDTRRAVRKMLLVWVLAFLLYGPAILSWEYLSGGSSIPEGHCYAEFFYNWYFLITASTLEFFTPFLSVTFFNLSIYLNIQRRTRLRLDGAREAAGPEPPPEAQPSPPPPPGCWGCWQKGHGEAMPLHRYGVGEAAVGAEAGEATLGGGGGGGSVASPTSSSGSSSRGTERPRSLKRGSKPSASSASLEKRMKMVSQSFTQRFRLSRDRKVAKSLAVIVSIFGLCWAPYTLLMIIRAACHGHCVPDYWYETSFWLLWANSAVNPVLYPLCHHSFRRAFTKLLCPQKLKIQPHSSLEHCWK
T10 sequence (P08588 whole entry): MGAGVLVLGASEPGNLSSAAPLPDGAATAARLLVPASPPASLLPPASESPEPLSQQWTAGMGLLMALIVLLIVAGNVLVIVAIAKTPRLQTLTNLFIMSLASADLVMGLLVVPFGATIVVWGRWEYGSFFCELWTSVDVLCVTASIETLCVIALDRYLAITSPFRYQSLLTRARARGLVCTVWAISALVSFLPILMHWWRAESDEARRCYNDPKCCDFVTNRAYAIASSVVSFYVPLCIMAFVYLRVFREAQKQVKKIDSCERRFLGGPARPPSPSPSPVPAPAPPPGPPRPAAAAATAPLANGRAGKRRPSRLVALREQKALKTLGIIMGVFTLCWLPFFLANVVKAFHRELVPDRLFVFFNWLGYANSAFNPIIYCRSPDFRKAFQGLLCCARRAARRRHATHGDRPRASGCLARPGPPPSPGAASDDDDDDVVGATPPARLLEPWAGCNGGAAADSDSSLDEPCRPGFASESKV
Chain of 5HT1E (P28566 whole entry, species assumed): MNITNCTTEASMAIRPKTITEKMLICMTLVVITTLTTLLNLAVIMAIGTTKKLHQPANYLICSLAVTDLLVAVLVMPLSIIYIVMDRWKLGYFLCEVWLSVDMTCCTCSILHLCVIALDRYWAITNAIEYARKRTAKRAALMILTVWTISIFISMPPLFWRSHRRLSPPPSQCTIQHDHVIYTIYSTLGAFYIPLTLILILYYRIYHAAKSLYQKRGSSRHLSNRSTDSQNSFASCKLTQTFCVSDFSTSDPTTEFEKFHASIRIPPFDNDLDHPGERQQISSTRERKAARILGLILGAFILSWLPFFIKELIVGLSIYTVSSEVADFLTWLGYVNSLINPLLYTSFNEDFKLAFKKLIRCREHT
T8 sequence (P37288 whole entry): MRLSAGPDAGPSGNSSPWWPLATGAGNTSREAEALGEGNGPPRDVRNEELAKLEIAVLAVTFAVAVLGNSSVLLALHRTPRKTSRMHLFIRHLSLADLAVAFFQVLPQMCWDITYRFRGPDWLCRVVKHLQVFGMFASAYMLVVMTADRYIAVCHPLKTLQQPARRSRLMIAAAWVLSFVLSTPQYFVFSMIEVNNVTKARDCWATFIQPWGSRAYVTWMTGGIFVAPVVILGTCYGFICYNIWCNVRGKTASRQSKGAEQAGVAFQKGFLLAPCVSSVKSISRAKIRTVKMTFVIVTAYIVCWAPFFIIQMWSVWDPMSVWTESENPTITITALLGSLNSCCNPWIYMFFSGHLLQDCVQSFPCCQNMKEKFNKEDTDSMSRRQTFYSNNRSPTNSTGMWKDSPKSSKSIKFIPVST
T4 sequence (P32238 whole entry): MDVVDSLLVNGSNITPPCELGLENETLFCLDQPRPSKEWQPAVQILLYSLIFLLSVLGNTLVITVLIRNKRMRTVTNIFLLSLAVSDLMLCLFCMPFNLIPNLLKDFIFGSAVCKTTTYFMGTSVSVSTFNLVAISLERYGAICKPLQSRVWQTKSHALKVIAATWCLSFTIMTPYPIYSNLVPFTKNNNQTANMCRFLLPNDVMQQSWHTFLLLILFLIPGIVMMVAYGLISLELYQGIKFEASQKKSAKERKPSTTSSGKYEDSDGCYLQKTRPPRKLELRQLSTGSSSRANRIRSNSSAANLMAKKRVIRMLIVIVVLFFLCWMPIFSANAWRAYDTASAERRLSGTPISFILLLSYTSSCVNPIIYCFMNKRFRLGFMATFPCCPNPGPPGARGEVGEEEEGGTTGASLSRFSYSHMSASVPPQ

COc1ccc(CC(=O)N(Cc2ccc(C)cc2)C2CCN(C)CC2)cc1 [Example 50ELH27, 2-(4-Methoxyphenyl)-N-(4-methylbenzyl)-N-(1-methylpiperidin-4-yl)acetamide]
> 3.16 µM: EC50 (5HT1A; agonist) | IC50 (5HT1A; antagonist) | EC50 (5HT1E; agonist) | IC50 (5HT1E; antagonist) | EC50 (beta 2; agonist) | IC50 (beta 2; antagonist) | EC50 (Histamine 3; agonist) | IC50 (Histamine 3; antagonist) | EC50 (CCK-A) | EC50 (alpha-1A(a/c); agonist) | IC50 (alpha-1A(a/c); antagonist) | EC50 (alpha 2A; agonist) | IC50 (alpha 2A; antagonist) | EC50 (5-HT4; agonist) | IC50 (5-HT4; inverse agonist) | EC50 (Vasopressin1A) | EC50 (m2; agonist) | IC50 (m2; antagonist) | EC50 (beta 1; agonist) | IC50 (beta 1; antagonist)
